What was measured:
Tyk2 = target: T1, Tyk2 (Homo sapiens, UniProt P29597); test: Tyk2 enzyme inhibition test (LANCE method); format: biochemical; conditions: for inhibition at 1 µM: read-out: Inhibitory rate (%) Tyk2 1 μM; for inhibition at 10 µM: test compound 10 μM, read-out: Inhibitory rate (%) Tyk2 10 μM
T1 construct: purchased Invitrogen
Experimental: Tyk2 Enzyme Inhibition Test
(§1) Tyk2 enzyme inhibitory activity of test compounds was measured by LANCE method (PerkinElmer). First, a test compound diluted with assay buffer (50 mM HEPES (pH=7.5), 10 mM MgCl2, 1 mM EGTA, 2 mM DTT, 0.01% Tween20, 0.01% BSA) was added to 384-well plate at 2 μL each. Then, a Tyk2 (Invitrogen) solution and a fluorescence-labeled peptide substrate (ULight-JAK1, PerkinElmer) solution diluted with assay buffer at 375 ng/mL and 300 nM, respectively were added at 2 μL each. Then, enzyme reaction was started by adding 2 μL each of ATP solution prepared with assay buffer at 30 μM. After the reaction at room temperature for 1 hr, Detection Buffer (PerkinElmer) prepared to be 20 mM EDTA, 4 nM europium-labeled anti-phosphotyrosine antibody (PerkinElmer) was added at 6 μL each. After standing at room temperature for 1 hr, fluorescence intensity (excitation wavelength 340 nm, fluorescence wavelength 665 nm, delay time 100 microsecond) was measured by a plate reader, Envision (PerkinElmer). The inhibitory activity of each compound was calculated as relative value where fluorescence intensity of a well without enzyme is considered as 100% inhibition.

JAK1 = target: T2, JAK1 (Homo sapiens, UniProt P23458); test: JAK1 enzyme inhibition test (LANCE method); format: biochemical; conditions: for inhibition at 1 µM: read-out: Inhibitory rate (%) JAK1 1 μM; for inhibition at 10 µM: test compound 10 μM, read-out: Inhibitory rate (%) JAK1 10 μM
T2 construct: purchased Invitrogen
T2 sequence (P23458 whole entry): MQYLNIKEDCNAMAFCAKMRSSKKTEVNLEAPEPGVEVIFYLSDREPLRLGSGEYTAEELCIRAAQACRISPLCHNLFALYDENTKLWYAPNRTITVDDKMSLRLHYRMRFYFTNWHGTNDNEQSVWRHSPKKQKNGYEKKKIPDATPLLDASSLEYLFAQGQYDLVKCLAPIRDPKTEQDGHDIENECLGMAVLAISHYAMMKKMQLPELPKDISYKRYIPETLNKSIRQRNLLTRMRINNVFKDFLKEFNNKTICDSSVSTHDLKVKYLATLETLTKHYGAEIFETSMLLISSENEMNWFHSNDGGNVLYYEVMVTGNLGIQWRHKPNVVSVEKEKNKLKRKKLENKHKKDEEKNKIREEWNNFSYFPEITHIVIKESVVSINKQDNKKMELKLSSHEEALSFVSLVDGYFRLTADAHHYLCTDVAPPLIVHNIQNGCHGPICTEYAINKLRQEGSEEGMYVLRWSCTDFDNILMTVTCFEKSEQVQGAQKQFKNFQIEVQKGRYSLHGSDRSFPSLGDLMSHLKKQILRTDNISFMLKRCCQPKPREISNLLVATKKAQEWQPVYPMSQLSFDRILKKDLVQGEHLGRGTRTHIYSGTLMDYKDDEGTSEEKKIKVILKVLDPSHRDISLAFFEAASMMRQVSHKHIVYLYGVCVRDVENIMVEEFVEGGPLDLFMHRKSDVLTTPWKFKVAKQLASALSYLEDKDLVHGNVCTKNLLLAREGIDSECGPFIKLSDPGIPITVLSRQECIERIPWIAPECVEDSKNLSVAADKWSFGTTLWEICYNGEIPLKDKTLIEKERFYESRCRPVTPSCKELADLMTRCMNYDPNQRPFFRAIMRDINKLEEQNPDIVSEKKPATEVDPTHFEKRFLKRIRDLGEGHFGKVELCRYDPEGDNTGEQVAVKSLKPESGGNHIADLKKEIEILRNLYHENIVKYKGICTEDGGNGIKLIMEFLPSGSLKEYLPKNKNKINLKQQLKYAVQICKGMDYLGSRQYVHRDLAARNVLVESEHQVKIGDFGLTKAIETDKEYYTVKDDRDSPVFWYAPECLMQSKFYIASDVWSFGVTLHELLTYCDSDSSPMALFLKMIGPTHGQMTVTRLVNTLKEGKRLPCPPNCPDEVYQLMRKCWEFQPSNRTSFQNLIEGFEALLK
Experimental: JAK1 Enzyme Inhibition Test
as §1, with “JAK1 enzyme” for “Tyk2 enzyme”, “a JAK1” for “a Tyk2”, “at 187.5” for “at 375”, “at 150” for “at 30”

T1 sequence (P29597 whole entry): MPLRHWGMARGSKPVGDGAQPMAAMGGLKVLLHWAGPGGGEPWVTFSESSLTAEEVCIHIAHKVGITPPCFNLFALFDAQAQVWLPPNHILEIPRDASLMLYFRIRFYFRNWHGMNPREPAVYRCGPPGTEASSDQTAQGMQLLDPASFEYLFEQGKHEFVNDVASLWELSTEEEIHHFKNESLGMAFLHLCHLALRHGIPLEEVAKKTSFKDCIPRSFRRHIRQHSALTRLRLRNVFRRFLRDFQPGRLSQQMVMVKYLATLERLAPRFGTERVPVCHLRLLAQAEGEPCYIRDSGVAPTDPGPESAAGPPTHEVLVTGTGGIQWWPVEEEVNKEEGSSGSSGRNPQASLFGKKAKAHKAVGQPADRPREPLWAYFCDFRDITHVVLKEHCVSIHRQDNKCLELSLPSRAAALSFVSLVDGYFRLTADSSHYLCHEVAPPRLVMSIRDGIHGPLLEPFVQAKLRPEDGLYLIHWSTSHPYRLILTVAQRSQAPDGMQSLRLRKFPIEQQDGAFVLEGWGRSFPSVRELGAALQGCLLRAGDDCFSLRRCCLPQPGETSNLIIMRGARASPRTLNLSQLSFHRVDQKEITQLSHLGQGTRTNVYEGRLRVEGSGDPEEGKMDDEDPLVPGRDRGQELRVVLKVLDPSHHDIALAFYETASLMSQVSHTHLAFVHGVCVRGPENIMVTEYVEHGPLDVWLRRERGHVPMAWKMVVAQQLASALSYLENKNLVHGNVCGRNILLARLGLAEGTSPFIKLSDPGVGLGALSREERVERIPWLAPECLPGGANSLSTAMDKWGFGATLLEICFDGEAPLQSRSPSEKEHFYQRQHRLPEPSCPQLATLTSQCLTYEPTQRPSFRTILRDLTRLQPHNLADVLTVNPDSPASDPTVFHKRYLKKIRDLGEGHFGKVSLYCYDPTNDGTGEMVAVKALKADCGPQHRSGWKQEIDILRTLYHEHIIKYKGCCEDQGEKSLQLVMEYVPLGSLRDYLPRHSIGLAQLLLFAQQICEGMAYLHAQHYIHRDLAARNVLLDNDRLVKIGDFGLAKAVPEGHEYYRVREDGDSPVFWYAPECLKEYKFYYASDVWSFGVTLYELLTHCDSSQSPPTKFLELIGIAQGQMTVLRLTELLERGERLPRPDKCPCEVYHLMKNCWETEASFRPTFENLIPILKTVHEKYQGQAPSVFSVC

inhibition at 1 µM (Tyk2; test compound 1 μM) | inhibition at 1 µM (JAK1; test compound 1 μM) | SMILES | also measured
98% | 98% | NC(=O)c1cc(-c2nn(C3CCOCC3)c3cc[nH]c(=O)c23)cs1 [Example 27, 4-(4-oxo-1-(tetrahydro-2H-pyran-4-yl)-4,5-dihydro-1H-pyrazolo[4,3-c]pyridin-3-yl)thiophene-2-carboxamide] | 
 |  | NS(=O)(=O)c1ccc(-c2nn(C3CCCOC3)c3cc[nH]c(=O)c23)cc1 (stereo not shown) [Example 28, 4-(4-oxo-1-(tetrahydro-2H-pyran-3-yl)-4,5-dihydro-1H-pyrazolo[4,3-c]pyridin-3-yl)benzenesulfonamide] | Inhibitory rate (%) Tyk2 1 μM (Tyk2; test compound 1 μM): 97%; Inhibitory rate (%) JAK1 1 μM (JAK1; test compound 1 μM): 99%
83% | 14% | COC(=O)c1c[nH]c(=O)c2c(-c3ccc(C(N)=O)cc3)cn(C3CCCC3)c12 [Example 29, methyl 3-(4-carbamoylphenyl)-1-cyclopentyl-4-oxo-4,5-dihydro-1H-pyrrolo[3,2-c]pyridine-7-carboxylate] | 
92% | 94% | NS(=O)(=O)c1ccc(-c2nn(-c3ccccc3)c3cc[nH]c(=O)c23)cc1 [Example 30, 4-(4-oxo-1-phenyl-4,5-dihydro-1H-pyrazolo[4,3-c]pyridin-3-yl)benzenesulfonamide] | 
90% | 95% | NS(=O)(=O)c1ccc(-c2cn([C@H]3CC[C@H](O)CC3)c3cc[nH]c(=O)c23)cc1 [Example 31, 4-(1-(trans-4-hydroxycyclohexyl)-4-oxo-4,5-dihydro-1H-pyrrolo[3,2-c]pyridin-3-yl)benzenesulfonamide] | 
95% | 98% | NS(=O)(=O)c1ccc(-c2cn([C@H]3CC[C@@H](O)CC3)c3cc[nH]c(=O)c23)cc1 [Example 32, 4-(1-(cis-4-hydroxycyclohexyl)-4-oxo-4,5-dihydro-1H-pyrrolo[3,2-c]pyridin-3-yl)benzenesulfonamide] | 
99% | 99% | N#Cc1c[nH]c(=O)c2c(-c3csc(C(N)=O)c3)cn(C3CCCC3)c12 [Example 33, 4-(7-cyano-1-cyclopentyl-4-oxo-4,5-dihydro-1H-pyrrolo[3,2-c]pyridin-3-yl)thiophene-2-carboxamide] | 
99% | 92% | COC(=O)c1c[nH]c(=O)c2c(-c3csc(C(N)=O)c3)cn(C3CCCC3)c12 [Example 34, methyl 3-(5-carbamoyl-3-thienyl)-1-cyclopentyl-4-oxo-4,5-dihydro-1H-pyrrolo[3,2-c]pyridine-7-carboxylate] | 
97% | 99% | NS(=O)(=O)c1ccc(-c2nn(-c3c(F)cccc3F)c3cc[nH]c(=O)c23)cc1 [Example 35, 4-(1-(2,6-difluorophenyl)-4-oxo-4,5-dihydro-1H-pyrazolo[4,3-c]pyridin-3-yl)benzenesulfonamide] | 
98% | 97% | COC(=O)c1cc(-c2nn(-c3c(F)cccc3F)c3cc[nH]c(=O)c23)cs1 [Example 36, methyl 4-(1-(2,6-difluorophenyl)-4-oxo-4,5-dihydro-1H-pyrazolo[4,3-c]pyridin-3-yl)thiophene-2-carboxylate] | 
99% | 99% | O=C(O)c1cc(-c2nn(-c3c(F)cccc3F)c3cc[nH]c(=O)c23)cs1 [Example 37, 4-(1-(2,6-difluorophenyl)-4-oxo-4,5-dihydro-1H-pyrazolo[4,3-c]pyridin-3-yl)thiophene-2-carboxylic acid] | 
99% | 100% | NC(=O)c1cc(-c2nn(-c3c(F)cccc3F)c3cc[nH]c(=O)c23)cs1 [Example 38, 4-(1-(2,6-difluorophenyl)-4-oxo-4,5-dihydro-1H-pyrazolo[4,3-c]pyridin-3-yl)thiophene-2-carboxamide] | 
98% | 99% | N#CCc1ccc(-c2nn(-c3c(F)cccc3F)c3cc[nH]c(=O)c23)cc1 [Example 39, (4-(1-(2,6-difluorophenyl)-4-oxo-4,5-dihydro-1H-pyrazolo[4,3-c]pyridin-3-yl)phenyl)acetonitrile] | 
78% | 78% | NC(=O)c1cc(-c2cn(C3CCCC3)c3c(CO)c[nH]c(=O)c23)cs1 [Example 40, 4-(1-cyclopentyl-7-(hydroxymethyl)-4-oxo-4,5-dihydro-1H-pyrrolo[3,2-c]pyridin-3-yl)thiophene-2-carboxamide] | 
 |  | O=c1[nH]ccc2c1c(C1=CCCCC1)nn2C1CCCC1 [Example 41, 3-(cyclohex-1-en-1-yl)-1-cyclopentyl-1,5-dihydro-4H-pyrazolo[4,3-c]pyridin-4-one] | inhibition at 10 µM (Tyk2): 49%; inhibition at 10 µM (JAK1): 38%
51% | 53% | O=c1[nH]ccc2c1c(C1=CCOCC1)nn2C1CCCC1 [Example 42, 1-cyclopentyl-3-(3,6-dihydro-2H-pyran-4-yl)-1,5-dihydro-4H-pyrazolo[4,3-c]pyridin-4-one] | 
91% | 87% | O=c1[nH]ccc2c1c(-c1ccccc1)nn2C1CCCC1 [Example 43, 1-cyclopentyl-3-phenyl-1,5-dihydro-4H-pyrazolo[4,3-c]pyridin-4-one] | 
91% | 94% | O=c1[nH]ccc2c1c(-c1ccncc1)nn2C1CCCC1 [Example 44, 1-cyclopentyl-3-(pyridin-4-yl)-1,5-dihydro-4H-pyrazolo[4,3-c]pyridin-4-one] | 
74% | 90% | O=c1[nH]ccc2c1c(-c1ccc(OC(F)(F)F)cc1)nn2C1CCCC1 [Example 45, 1-cyclopentyl-3-(4-(trifluoromethoxy)phenyl)-1,5-dihydro-4H-pyrazolo[4,3-c]pyridin-4-one] | 
95% | 91% | COc1ccc(-c2nn(C3CCCC3)c3cc[nH]c(=O)c23)cc1 [Example 46, 1-cyclopentyl-3-(4-methoxyphenyl)-1,5-dihydro-4H-pyrazolo[4,3-c]pyridin-4-one] | 
71% | 62% | COc1cccc(-c2nn(C3CCCC3)c3cc[nH]c(=O)c23)c1 [Example 47, 1-cyclopentyl-3-(3-methoxyphenyl)-1,5-dihydro-4H-pyrazolo[4,3-c]pyridin-4-one] | 
7% | 3% | COc1ccccc1-c1nn(C2CCCC2)c2cc[nH]c(=O)c12 [Example 48, 1-cyclopentyl-3-(2-methoxyphenyl)-1,5-dihydro-4H-pyrazolo[4,3-c]pyridin-4-one] | 
89% | 85% | O=c1[nH]ccc2c1c(-c1ccc3c(c1)OCO3)nn2C1CCCC1 [Example 49, 3-(1,3-benzodioxol-5-yl)-1-cyclopentyl-1,5-dihydro-4H-pyrazolo[4,3-c]pyridin-4-one] | 
92% | 92% | Cc1ccc(-c2nn(C3CCCC3)c3cc[nH]c(=O)c23)cc1 [Example 50, 1-cyclopentyl-3-(4-methylphenyl)-1,5-dihydro-4H-pyrazolo[4,3-c]pyridin-4-one] | 
84% | 90% | O=c1[nH]ccc2c1c(-c1ccc(C(F)(F)F)cc1)nn2C1CCCC1 [Example 51, 1-cyclopentyl-3-(4-(trifluoromethyl)phenyl)-1,5-dihydro-4H-pyrazolo[4,3-c]pyridin-4-one] | 
46% | 43% | O=c1[nH]ccc2c1c(-c1cccc(C(F)(F)F)c1)nn2C1CCCC1 [Example 52, 1-cyclopentyl-3-(3-(trifluoromethyl)phenyl)-1,5-dihydro-4H-pyrazolo[4,3-c]pyridin-4-one] | 
 |  | O=c1[nH]ccc2c1c(-c1ccccc1C(F)(F)F)nn2C1CCCC1 [Example 53, 1-cyclopentyl-3-(2-(trifluoromethyl)phenyl)-1,5-dihydro-4H-pyrazolo[4,3-c]pyridin-4-one] | inhibition at 10 µM (Tyk2): 28%; inhibition at 10 µM (JAK1): 10%
91% | 91% | O=c1[nH]ccc2c1c(-c1ccc(F)cc1)nn2C1CCCC1 [Example 54, 1-cyclopentyl-3-(4-fluorophenyl)-1,5-dihydro-4H-pyrazolo[4,3-c]pyridin-4-one] | 
85% | 78% | O=c1[nH]ccc2c1c(-c1cccc(F)c1)nn2C1CCCC1 [Example 55, 1-cyclopentyl-3-(3-fluorophenyl)-1,5-dihydro-4H-pyrazolo[4,3-c]pyridin-4-one] | 

— patent US9371320B2, “Heterocyclic compound” (TAKEDA PHARMACEUTICAL COMPANY LIMITED, priority 2012, dated 2016)
